Laboratory results taken from PubChem BioAssay AID2060882 (Molecular Pharmacology Branch, DTP, NCI, 2025).

Test system: 898857-211-R-J1-PDC complex spheroids, growth % test/control
Test: Anticancer human tumor 898857-211-R-J1-PDC patient-derived melanoma cell line growth inhibition [RAS]
Conditions: for viability, T/C: stronger effect = lower value
Outline: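 Agents were tested in combination matrices in half-log decrements from a top concentration at or near clinical Cmax (10 microM if undetermined). Targets were multi-cell spheroids of tumour lines plus HUVEC and MSC stromal cells.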

[1] = curve of first compound, second compound 0.000949 µM
[2] = curve of first compound, second compound 0.003 µM
[3] = curve of first compound, second compound 0.00949 µM
[4] = curve of first compound, second compound 0.03 µM
[5] = curve of first compound, second compound 0.0949 µM
[6] = curve of first compound, second compound 0.3 µM
[7] = second compound 0.000949 µM, first compound 0.0316 µM
[8] = second compound 0.000949 µM, first compound 0.1 µM
[9] = second compound 0.000949 µM, first compound 0.316 µM
[10] = second compound 0.000949 µM, first compound 1 µM
[11] = second compound 0.000949 µM, first compound 3.16 µM
[12] = second compound 0.000949 µM, first compound 10 µM
[13] = second compound 0.003 µM, first compound 0.0316 µM
[14] = second compound 0.003 µM, first compound 0.1 µM
[15] = second compound 0.003 µM, first compound 0.316 µM
[16] = second compound 0.003 µM, first compound 1 µM
[17] = second compound 0.003 µM, first compound 3.16 µM
[18] = second compound 0.003 µM, first compound 10 µM
[19] = second compound 0.00949 µM, first compound 0.0316 µM
[20] = second compound 0.00949 µM, first compound 0.1 µM
[21] = second compound 0.00949 µM, first compound 0.316 µM
[22] = second compound 0.00949 µM, first compound 1 µM
[23] = second compound 0.00949 µM, first compound 3.16 µM
[24] = second compound 0.00949 µM, first compound 10 µM
[25] = second compound 0.03 µM, first compound 0.0316 µM
[26] = second compound 0.03 µM, first compound 0.1 µM
[27] = second compound 0.03 µM, first compound 0.316 µM
[28] = second compound 0.03 µM, first compound 1 µM
[29] = second compound 0.03 µM, first compound 3.16 µM
[30] = second compound 0.03 µM, first compound 10 µM
[31] = second compound 0.0949 µM, first compound 0.0316 µM
[32] = second compound 0.0949 µM, first compound 0.1 µM
[33] = second compound 0.0949 µM, first compound 0.316 µM
[34] = second compound 0.0949 µM, first compound 1 µM
[35] = second compound 0.0949 µM, first compound 3.16 µM
[36] = second compound 0.0949 µM, first compound 10 µM
[37] = second compound 0.3 µM, first compound 0.0316 µM
[38] = second compound 0.3 µM, first compound 0.1 µM
[39] = second compound 0.3 µM, first compound 0.316 µM
[40] = second compound 0.3 µM, first compound 1 µM
[41] = second compound 0.3 µM, first compound 3.16 µM
[42] = second compound 0.3 µM, first compound 10 µM
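Further: spheroids exposed to compound for seven days before readout.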
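Wherever viability, T/C is given: 100% = DMSO vehicle control wells.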

CC(Nc1ccc2c(c1)OCCn1cc(N3C(=O)OCC3C(F)F)nc1-2)C(N)=O (stereo not given)
viability, T/C (compound 0.0316 µM): 101% [middle of 4 runs] | viability, T/C (compound 0.1 µM): 90.6% [middle of 4 runs] | viability, T/C (compound 0.316 µM): 102% [middle of 4 runs] | viability, T/C (compound 1 µM): 91.9% [middle of 4 runs] | viability, T/C (compound 3.16 µM): 95.3% [middle of 4 runs] | viability, T/C (compound 10 µM): 70.9% [middle of 4 runs] | IC50 (curve of compound): > 10 µM

Cc1nc(N2CCC3(CC2)COC(C)C3N)c(CO)nc1Sc1ccnc(N)c1Cl (stereo not given) + CCn1c(-c2cc(N3CCN(C)CC3)cnc2C(C)OC)c2c3cc(ccc31)-c1csc(n1)CC(NC(=O)C1CC1C)C(=O)N1CCCC(N1)C(=O)OCC(C)(C)C2
IC50 [1]: > 10 µM | IC50 [2]: > 10 µM | IC50 [3]: > 10 µM | IC50 [4]: > 10 µM | IC50 [5]: > 10 µM | IC50 [6]: > 10 µM | viability, T/C [7]: 99.6% | viability, T/C [8]: 98% | viability, T/C [9]: 93.6% | viability, T/C [10]: 94.2% | viability, T/C [11]: 94.3% | viability, T/C [12]: 86.1% | viability, T/C [13]: 96.1% | viability, T/C [14]: 92.2% | viability, T/C [15]: 105% | viability, T/C [16]: 96.4% | viability, T/C [17]: 92.2% | viability, T/C [18]: 85.5% | viability, T/C [19]: 96% | viability, T/C [20]: 110% | viability, T/C [21]: 112% | viability, T/C [22]: 103% | viability, T/C [23]: 96.9% | viability, T/C [24]: 77.7% | viability, T/C [25]: 109% | viability, T/C [26]: 107% | viability, T/C [27]: 106% | viability, T/C [28]: 97.6% | viability, T/C [29]: 99.5% | viability, T/C [30]: 74.8% | viability, T/C [31]: 115% | viability, T/C [32]: 116% | viability, T/C [33]: 110% | viability, T/C [34]: 107% | viability, T/C [35]: 107% | viability, T/C [36]: 84.7% | viability, T/C [37]: 90.7% | viability, T/C [38]: 105% | viability, T/C [39]: 99.2% | viability, T/C [40]: 111% | viability, T/C [41]: 104% | viability, T/C [42]: 76.9%

NC1c2ccccc2OC12CCN(c1cnc3c(N4CCCc5ncccc54)n[nH]c3n1)CC2 (stereo not given) + CCn1c(-c2cccnc2C(C)OC)c2c3cc(ccc31)N1CCOC(CC(NC(=O)C(C(C)C)N(C)C(=O)C3(F)CCN(C(=O)C#CC(C)(C)N(C)C)CC3)C(=O)N3CCCC(N3)C(=O)OCC(C)(C)C2)C1
IC50 [1]: > 10 µM | IC50 [2]: > 10 µM | IC50 [3]: > 10 µM | IC50 [4]: > 10 µM | IC50 [5]: > 10 µM | IC50 [6]: 7.88 µM | viability, T/C [7]: 91.6% | viability, T/C [8]: 94.3% | viability, T/C [9]: 99.9% | viability, T/C [10]: 90.7% | viability, T/C [11]: 101% | viability, T/C [12]: 70.9% | viability, T/C [13]: 95% | viability, T/C [14]: 88.7% | viability, T/C [15]: 90.4% | viability, T/C [16]: 90.9% | viability, T/C [17]: 97.9% | viability, T/C [18]: 67.8% | viability, T/C [19]: 99% | viability, T/C [20]: 106% | viability, T/C [21]: 101% | viability, T/C [22]: 87.2% | viability, T/C [23]: 89% | viability, T/C [24]: 74.3% | viability, T/C [25]: 103% | viability, T/C [26]: 100% | viability, T/C [27]: 101% | viability, T/C [28]: 96.6% | viability, T/C [29]: 95.1% | viability, T/C [30]: 63.8% | viability, T/C [31]: 82.9% | viability, T/C [32]: 87.2% | viability, T/C [33]: 97.7% | viability, T/C [34]: 91.1% | viability, T/C [35]: 84.8% | viability, T/C [36]: 55.4% | viability, T/C [37]: 73.3% | viability, T/C [38]: 77.6% | viability, T/C [39]: 67.9% | viability, T/C [40]: 72.9% | viability, T/C [41]: 72.6% | viability, T/C [42]: 44.1%

CC(=O)OC12COC1CC(O)C1(C)C(=O)C(O)C3=C(C)C(OC(=O)C(O)C(NC(=O)OC(C)(C)C)c4ccccc4)CC(O)(C(OC(=O)c4ccccc4)C21)C3(C)C (stereo not given) + C#Cc1c(F)ccc2cc(O)cc(-c3ncc4c(N5CC6CCC(C5)N6)nc(OCC56CCCN5CC(F)C6)nc4c3F)c12
IC50 (curve of first compound, second compound 0.0316 µM): < 0.0316 µM | IC50 (curve of first compound, second compound 0.1 µM): < 0.0316 µM | IC50 (curve of first compound, second compound 0.316 µM): < 0.0316 µM | IC50 (curve of first compound, second compound 1 µM): < 0.0316 µM | IC50 (curve of first compound, second compound 3.16 µM): < 0.0316 µM | IC50 (curve of first compound, second compound 10 µM): < 0.0316 µM | viability, T/C (second compound 0.0316 µM, first compound 0.0316 µM): 12% | viability, T/C (second compound 0.0316 µM, first compound 0.1 µM): 12.8% | viability, T/C (second compound 0.0316 µM, first compound 0.316 µM): 12.1% | viability, T/C (second compound 0.0316 µM, first compound 1 µM): 16% | viability, T/C (second compound 0.0316 µM, first compound 3.16 µM): 26.6% | viability, T/C (second compound 0.0316 µM, first compound 10 µM): 27.4% | viability, T/C (second compound 0.1 µM, first compound 0.0316 µM): 13% | viability, T/C (second compound 0.1 µM, first compound 0.1 µM): 12.1% | viability, T/C (second compound 0.1 µM, first compound 0.316 µM): 14.1% | viability, T/C (second compound 0.1 µM, first compound 1 µM): 17.1% | viability, T/C (second compound 0.1 µM, first compound 3.16 µM): 25.5% | viability, T/C (second compound 0.1 µM, first compound 10 µM): 21.1% | viability, T/C (second compound 0.316 µM, first compound 0.0316 µM): 16.4% | viability, T/C (second compound 0.316 µM, first compound 0.1 µM): 15.8% | viability, T/C (second compound 0.316 µM, first compound 0.316 µM): 12.1% | viability, T/C (second compound 0.316 µM, first compound 1 µM): 17.7% | viability, T/C (second compound 0.316 µM, first compound 3.16 µM): 25.2% | viability, T/C (second compound 0.316 µM, first compound 10 µM): 21.3% | viability, T/C (second compound 1 µM, first compound 0.0316 µM): 14.2% | viability, T/C (second compound 1 µM, first compound 0.1 µM): 12.7% | viability, T/C (second compound 1 µM, first compound 0.316 µM): 12.8% | viability, T/C (second compound 1 µM, first compound 1 µM): 16.5% | viability, T/C (second compound 1 µM, first compound 3.16 µM): 15.7% | viability, T/C (second compound 1 µM, first compound 10 µM): 24.7% | viability, T/C (second compound 3.16 µM, first compound 0.0316 µM): 13.3% | viability, T/C (second compound 3.16 µM, first compound 0.1 µM): 16.7% | viability, T/C (second compound 3.16 µM, first compound 0.316 µM): 16.7% | viability, T/C (second compound 3.16 µM, first compound 1 µM): 20.4% | viability, T/C (second compound 3.16 µM, first compound 3.16 µM): 24.6% | viability, T/C (second compound 3.16 µM, first compound 10 µM): 27.6% | viability, T/C (second compound 10 µM, first compound 0.0316 µM): 7.03% | viability, T/C (second compound 10 µM, first compound 0.1 µM): 9% | viability, T/C (second compound 10 µM, first compound 0.316 µM): 5.98% | viability, T/C (second compound 10 µM, first compound 1 µM): 9.12% | viability, T/C (second compound 10 µM, first compound 3.16 µM): 7.68% | viability, T/C (second compound 10 µM, first compound 10 µM): 7.34%

CC(C)NCC(C(=O)N1CCN(c2ncnc3c2C(C)CC3O)CC1)c1ccc(Cl)cc1 (stereo not given) + CCn1c(-c2cc(N3CCN(C)CC3)cnc2C(C)OC)c2c3cc(ccc31)-c1csc(n1)CC(NC(=O)C1CC1C)C(=O)N1CCCC(N1)C(=O)OCC(C)(C)C2
IC50 [1]: > 10 µM | IC50 [2]: 7.54 µM | IC50 [3]: 7.68 µM | IC50 [4]: 6.37 µM | IC50 [5]: 8.16 µM | IC50 [6]: 6.16 µM | viability, T/C [7]: 105% | viability, T/C [8]: 105% | viability, T/C [9]: 103% | viability, T/C [10]: 76.7% | viability, T/C [11]: 58.6% | viability, T/C [12]: 50.5% | viability, T/C [13]: 102% | viability, T/C [14]: 106% | viability, T/C [15]: 93.5% | viability, T/C [16]: 82.1% | viability, T/C [17]: 63.3% | viability, T/C [18]: 45.6% | viability, T/C [19]: 85.4% | viability, T/C [20]: 101% | viability, T/C [21]: 82% | viability, T/C [22]: 82% | viability, T/C [23]: 61.4% | viability, T/C [24]: 46.6% | viability, T/C [25]: 94% | viability, T/C [26]: 109% | viability, T/C [27]: 96% | viability, T/C [28]: 75.7% | viability, T/C [29]: 61.2% | viability, T/C [30]: 43.5% | viability, T/C [31]: 99.4% | viability, T/C [32]: 107% | viability, T/C [33]: 104% | viability, T/C [34]: 79.6% | viability, T/C [35]: 69.1% | viability, T/C [36]: 45.6% | viability, T/C [37]: 99.9% | viability, T/C [38]: 97.2% | viability, T/C [39]: 86.2% | viability, T/C [40]: 91.8% | viability, T/C [41]: 63.9% | viability, T/C [42]: 39.8%
